≈ marks a conversion by molar mass, not a printed value.
Key:
Assay in all cases: ≥ marks a high value that may be exact or a test limit, other limits are often not marked, values filed in µg/mL are converted to µM
[1] = system: Candida albicans ATCC 64550
[2] = system: Micrococcus luteus 1D00051
[3] = system: Staphylococcus aureus 1D00101
[4] = system: Vibrio ichthyoenteri 1A00057
Vibrio litoralis H1 = system: Vibrio litoralis H1
Vibrio scophthalmi ZS1 = system: Vibrio scophthalmi ZS1
[5] = system: Vibrio vulnificus 1H00066
Acinetobacter baumannii = system: Acinetobacter baumannii
Candida albicans = system: Candida albicans
Candida glabrata = system: Candida glabrata
Candida tropicalis = system: Candida tropicalis
[6] = system: Pseudomonas aeruginosa ATCC 10662
[7] = system: Staphylococcus aureus ATCC 25923
Staphylococcus aureus = system: Staphylococcus aureus
[8] = system: Acinetobacter baumannii B2367-12
[9] = system: Enterobacter cloacae B2366-12
[10] = system: Enterococcus faecium ATCC 51559
[11] = system: Klebsiella pneumoniae ATCC 13883
[12] = system: Pseudomonas aeruginosa PAO1
[13] = system: Staphylococcus aureus USA 300
[14] = system: Acinetobacter baumannii ATCC 19606
[15] = system: Bacillus subtilis ATCC 6051
[16] = system: Candida albicans ATCC 90028
[17] = system: Cryptococcus neoformans ATCC 208821
[18] = system: Escherichia coli ATCC 25922
[19] = system: Klebsiella pneumoniae ATCC 700603
[20] = system: Klebsiella pneumoniae ATCC BAA-2146
Klebsiella pneumoniae = system: Klebsiella pneumoniae
[21] = system: Pseudomonas aeruginosa ATCC 27853
Pseudomonas aeruginosa = system: Pseudomonas aeruginosa
[22] = system: Staphylococcus aureus ATCC 43300
[23] = system: Streptococcus gordonii ATCC 10558
[24] = system: Streptococcus mutans GS-5
[25] = system: Streptococcus mutans UA159
[26] = system: Streptococcus sanguinis ATCC 49295
Aeromonas hydrophila = system: Aeromonas hydrophila
Escherichia coli = system: Escherichia coli
Streptococcus pyogenes = system: Streptococcus pyogenes
Vibrio alginolyticus = system: Vibrio alginolyticus
Vibrio fluvialis = system: Vibrio fluvialis
Vibrio parahaemolyticus = system: Vibrio parahaemolyticus

CC(=O)N[C@@H](C)C(=O)N[C@@H](C)C(=O)N[C@@H](C)C(=O)N[C@@H](C)C(=O)N[C@@H](C)C(=O)N[C@@H](C)C(=O)N[C@@H](C)C(=O)N[C@@H](C)C(=O)N[C@@H](C)C(=O)N[C@@H](CCCCN)C(N)=O [AAAAAAAAAK]
MIC [1]: ≥ 100 µM

CSCC[C@H](NC(=O)[C@H](CCCN=C(N)N)NC(=O)[C@H](Cc1cnc[nH]1)NC(=O)CNC(=O)[C@H](CCCCN)NC(=O)CNC(=O)[C@H](CCC(N)=O)NC(=O)[C@H](CCCN=C(N)N)NC(=O)[C@H](CCCCN)NC(=O)[C@H](Cc1ccc(O)cc1)NC(=O)[C@H](CCCCN)NC(=O)[C@H](CCCCN)NC(=O)CNC(=O)CNC(=O)[C@H](CCCCN)NC(=O)[C@@H](NC(=O)[C@@H](N)CS)C(C)C)C(=O)N[C@@H](CCCN=C(N)N)C(=O)N[C@@H](CCCN=C(N)N)C(=O)N[C@@H](Cc1ccc(O)cc1)C(=O)N[C@@H](CCCN=C(N)N)C(=O)N[C@@H](CC(N)=O)C(=O)N[C@@H](CC(N)=O)C(=O)N[C@@H](Cc1cnc[nH]1)C(=O)O [CVKGGKKYKRQGKGHRMRRYRNNH]
MIC [2]: 3 µM (≈ 8.88 µg/mL) | MIC [3]: 6 µM (≈ 17.8 µg/mL) | MIC [4]: ≥ 85 µM | MIC (Vibrio litoralis H1): 11 µM (≈ 32.5 µg/mL) | MIC (Vibrio scophthalmi ZS1): ≥ 340 µM | MIC [5]: ≥ 170 µM

CC[C@H](C)[C@H](NC(=O)[C@H](C)NC(=O)[C@H](CCCCN)NC(=O)[C@H](C)NC(=O)CNC(=O)[C@H](CCCN=C(N)N)NC(=O)[C@H](CC(C)C)NC(=O)[C@H](CC(C)C)NC(=O)[C@H](CO)NC(=O)[C@H](CCCN=C(N)N)NC(=O)[C@H](CC(C)C)NC(=O)[C@@H](N)Cc1ccccc1)C(=O)N[C@@H](Cc1ccc(O)cc1)C(=O)N[C@@H](CCCN=C(N)N)C(=O)NCC(=O)N[C@@H](C)C(=O)N[C@@H](CCCN=C(N)N)C(=O)N[C@@H](C)C(=O)NCC(=O)N[C@@H](Cc1c[nH]c2ccccc12)C(=O)N[C@@H](CCCN=C(N)N)C(=O)NCC(N)=O [FLRSLLRGAKAIYRGARAGWRG]
MIC (Acinetobacter baumannii): 7.27 µM (≈ 18 µg/mL) | MIC (Candida albicans): 2.67 µM (≈ 6.62 µg/mL) | MIC (Candida glabrata): ≥ 60.6 µM | MIC (Candida tropicalis): 2.67 µM (≈ 6.62 µg/mL) | MIC [6]: 15.1 µM (≈ 37.5 µg/mL) | MIC [7]: 1.89 µM (≈ 4.68 µg/mL) | MIC (Staphylococcus aureus): 1.89 µM (≈ 4.68 µg/mL)

CC(C)C[C@H](NC(=O)[C@H](CC(N)=O)NC(=O)[C@H](CCCN=C(N)N)NC(=O)[C@@H](CC(C)C)NC(=O)[C@H](Cc1ccccc1)NC(=O)[C@H](CC(=O)O)NC(=O)[C@H](CCCCN)NC(=O)[C@@H](CC(C)C)NC(=O)[C@H](CCCN=C(N)N)NC(=O)[C@H](CCC(N)=O)NC(=O)[C@@H](NC(=O)[C@@H](CC(C)C)NC(=O)[C@H](CCCN=C(N)N)NC(=O)[C@H](CCCCN)NC(=O)[C@H](Cc1ccccc1)NC(=O)CN)C(C)C)C(=O)N[C@H](C(N)=O)C(C)C [GFKRLVQRLKDFLRNLV]
MIC [8]: 8.8 µM (≈ 18.5 µg/mL) | MIC [9]: 25 µM (≈ 52.5 µg/mL) | MIC [10]: ≥ 100 µM | MIC [11]: ≥ 100 µM | MIC [12]: 100 µM (≈ 210 µg/mL) | MIC [13]: ≥ 100 µM

CC[C@H](C)[C@@H]1NC(=O)CNC(=O)[C@H](CCCN=C(N)N)NC(=O)[C@H](Cc2ccc(O)cc2)NC(=O)[C@@H](NC(=O)[C@@H](NC(=O)[C@H](CCCN=C(N)N)NC(=O)[C@H](Cc2ccccc2)NC(=O)[C@H](CO)NC(=O)[C@H](Cc2c[nH]c3ccccc23)NC(=O)[C@@H](N)CCCCN)C(C)C)CSSC[C@@H](C(=O)N[C@@H](Cc2ccc(O)cc2)C(=O)N[C@@H](CCCN=C(N)N)C(=O)N[C@@H](CCCN=C(N)N)C(=O)N[C@@H](C)C(=O)N[C@@H](CCCN=C(N)N)C(=O)O)NC1=O [KWSFRVCYRGICYRRAR]
MIC [14]: 0.113 µM (≈ 0.25 µg/mL) | MIC (Acinetobacter baumannii): 0.113 µM (≈ 0.25 µg/mL) | MIC [15]: 0.0563 µM (≈ 0.125 µg/mL) | MIC [16]: 1.8 µM (≈ 4 µg/mL) | MIC [17]: 0.113 µM (≈ 0.25 µg/mL) | MIC [18]: 0.113 µM (≈ 0.25 µg/mL) | MIC [11]: 0.45 µM (≈ 0.999 µg/mL) | MIC [19]: 0.901 µM (≈ 2 µg/mL) | MIC [20]: 0.45 µM (≈ 0.999 µg/mL) | MIC (Klebsiella pneumoniae): 7.21 µM (≈ 16 µg/mL) | MIC [21]: 0.45 µM (≈ 0.999 µg/mL) | MIC (Pseudomonas aeruginosa): 1.8 µM (≈ 4 µg/mL) | MIC [22]: 1.8 µM (≈ 4 µg/mL)

CC(C)C[C@H](NC(=O)[C@H](CCCN=C(N)N)NC(=O)[C@H](Cc1ccccc1)NC(=O)[C@H](Cc1ccccc1)NC(=O)[C@@H](NC(=O)[C@H](CO)NC(=O)[C@@H](N)CC(C)C)[C@@H](C)O)C(=O)N[C@@H](Cc1ccccc1)C(=O)N[C@@H](CC(N)=O)C(=O)N[C@@H](CCCN=C(N)N)C(=O)N[C@@H](CO)C(=O)N[C@@H](Cc1ccccc1)C(=O)N[C@H](C(=O)N[C@@H](CCC(N)=O)C(=O)NCC(=O)N[C@@H](CCCN=C(N)N)C(=O)N[C@@H](CCCN=C(N)N)C(=O)N[C@@H](CCCN=C(N)N)C(=O)N[C@@H](CCCN=C(N)N)C(=O)N[C@@H](CO)C(=O)N[C@H](C(=O)N[C@@H](CCC(N)=O)C(=O)N[C@@H](Cc1c[nH]c2ccccc12)C(=O)N[C@@H](CS)C(=O)N[C@@H](C)C(=O)O)C(C)C)[C@@H](C)O [LSTFFRLFNRSFTQGRRRRSVQWCA]
MIC [23]: 16 µM (≈ 49.8 µg/mL) | MIC [24]: 4.27 µM (≈ 13.3 µg/mL) | MIC [25]: 3.42 µM (≈ 10.7 µg/mL) | MIC [26]: 31.9 µM (≈ 99.6 µg/mL)

CC[C@H](C)[C@H](NC(=O)[C@H](CCCCN)NC(=O)[C@H](Cc1cnc[nH]1)NC(=O)[C@H](CC(C)C)NC(=O)[C@H](CC(C)C)NC(=O)[C@H](Cc1ccccc1)NC(=O)[C@H](CC(N)=O)NC(=O)[C@@H](N)C(C)C)C(=O)N[C@@H](Cc1ccc(O)cc1)C(=O)NCC(=O)N[C@@H](CC(N)=O)C(=O)N[C@H](C(=O)N[C@@H](CCCN=C(N)N)C(=O)N[C@@H](CC(=O)O)C(=O)N[C@@H](CO)C(=O)O)[C@@H](C)CC [VNFLLHKIYGNIRDS]
MIC (Aeromonas hydrophila): 2.18 µM (≈ 3.9 µg/mL) | MIC (Escherichia coli): 2.18 µM (≈ 3.9 µg/mL) | MIC (Staphylococcus aureus): 34.9 µM (≈ 62.5 µg/mL) | MIC (Streptococcus pyogenes): ≥ 34.9 µM | MIC (Vibrio alginolyticus): 2.18 µM (≈ 3.9 µg/mL) | MIC (Vibrio fluvialis): ≥ 34.9 µM | MIC (Vibrio parahaemolyticus): 18 µM (≈ 32.2 µg/mL)

— DBAASP
